These results are taken from patent publication US8076338B2, “Kinase modulators and methods of use” (Exelixis, Inc., priority 2004, dated 2011).

For assay [1], the target named is AktK (Homo sapiens, UniProt P31749). Nature of the assay: Luciferase-coupled chemiluminescence kinase assay (ATP consumption). Conditions: read-out: AKT-1 IC50. It counts as biochemical. As for the experimental part:
(§1) One measure of inhibition is Ki. […] The Ki for a compound is determined from the IC50 based on three assumptions. First, only one compound molecule binds to the enzyme and there is no cooperativity. […] Third, the enzymatic rate of the enzyme-inhibitor complex is zero. The rate data (i.e. compound concentration) are fitted to the equation: […]
(§2) Luciferase-Coupled Chemiluminescence Assay Protocol
(§3) Kinase activity is measured as the percent of ATP consumed following the kinase reaction using luciferase-luciferin-coupled chemiluminescence. Reactions were conducted in 384-well white, medium binding microtiter plates (Greiner). Kinase reactions were initiated by combining test compounds, ATP and kinase in a 20 uL volume. The reaction mixture was incubated at ambient temperature for 3 hrs. For p70S6K and/or AktK, 2.5-5 nM of the enzyme was pre-incubated with compound in 20 mM Tris pH 7.5, 10 mM MgCl2, 0.03% TX-100, and 1 mM DTT for 30 minutes at room temperature. Following the kinase reaction, a 20 μL aliquot of luciferase-luciferin mix was added and the chemiluminescence signal measured using a Victor^2 plate reader (Perkin Elmer). The luciferase-luciferin mix contained 50 mM HEPES, pH 7.8, 67 mM oxalic acid (pH 7.8), 5 (or 50) mM DTT, 0.4% Triton X-100, 0.25 mg/mL coenzyme A, 63 μM AMP, 28 μg/1 mL luciferin and 40,000 units/mL luciferase. Total ATP consumption was limited to 25-60% and the IC50 values correlate well with those determined by radiometric assays.

Assay [2] deals with p70S6K (Homo sapiens, UniProt P23443). The description is as above. It counts as biochemical. The method, then: as §1, §2, §3
p70S6K, sequence (P23443 whole entry): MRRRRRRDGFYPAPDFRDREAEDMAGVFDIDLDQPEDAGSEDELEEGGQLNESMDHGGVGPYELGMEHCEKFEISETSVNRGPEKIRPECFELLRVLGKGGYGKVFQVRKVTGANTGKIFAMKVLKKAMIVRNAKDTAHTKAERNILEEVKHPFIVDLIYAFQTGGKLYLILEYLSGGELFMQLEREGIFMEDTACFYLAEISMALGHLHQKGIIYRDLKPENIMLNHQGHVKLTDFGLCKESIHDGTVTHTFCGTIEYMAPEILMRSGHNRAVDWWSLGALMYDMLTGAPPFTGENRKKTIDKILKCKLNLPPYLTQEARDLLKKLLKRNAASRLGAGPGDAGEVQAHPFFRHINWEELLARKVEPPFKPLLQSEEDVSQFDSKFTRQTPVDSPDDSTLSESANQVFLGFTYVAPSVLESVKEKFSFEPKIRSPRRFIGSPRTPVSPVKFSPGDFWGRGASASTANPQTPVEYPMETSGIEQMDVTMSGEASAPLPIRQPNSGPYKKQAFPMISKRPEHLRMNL

Like-named read-outs stand apart in the source and are kept apart here.

By IC50 is commonly meant the concentration at which inhibition is half-maximal.

AktK, sequence (P31749 whole entry): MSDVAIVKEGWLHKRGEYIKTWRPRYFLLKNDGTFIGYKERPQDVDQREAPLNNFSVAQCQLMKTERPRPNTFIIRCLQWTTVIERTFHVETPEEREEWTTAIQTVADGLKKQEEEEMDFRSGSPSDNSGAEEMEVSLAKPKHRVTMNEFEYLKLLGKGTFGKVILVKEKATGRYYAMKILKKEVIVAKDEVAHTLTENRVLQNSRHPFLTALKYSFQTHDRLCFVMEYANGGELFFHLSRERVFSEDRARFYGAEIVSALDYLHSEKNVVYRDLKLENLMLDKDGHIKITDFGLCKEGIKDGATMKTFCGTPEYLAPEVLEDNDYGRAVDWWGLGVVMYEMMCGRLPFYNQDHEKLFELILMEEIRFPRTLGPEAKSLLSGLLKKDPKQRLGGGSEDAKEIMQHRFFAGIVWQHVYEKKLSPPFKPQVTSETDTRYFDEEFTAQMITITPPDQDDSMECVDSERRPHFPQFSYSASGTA

Consider “2-[4-(3-bromo-1H-pyrazolo[3,4-d]pyrimidin-4-yl)piperazin-1-yl]-N,N-diethylpyrimidin-4-amine [Entry 140]”, for which the IC50 in assay [1] (Table 1, class symbols per key) lay within 1000 to 10000 nM; in assay [2] (Table 1, class symbols per key), 100 to 1000 nM. For “3-[4-(3-bromo-1H-pyrazolo[3,4-d]pyrimidin-4-yl)piperazin-1-yl]-5-(butyloxy)-2-methyl-N-(2-pyrrolidin-1-ylethyl)aniline [Entry 208]”, in that order: below 100 nM and below 100 nM. The corresponding values for “3-[4-(3-bromo-1H-pyrazolo[3,4-d]pyrimidin-4-yl)piperazin-1-yl]-5-{[(difluoromethyl)oxy]meth-yl}-2-methyl-N-(2-pyrrolidin-1-ylethyl)aniline [Entry 254]” are below 100 nM and below 100 nM.

Regarding “3-bromo-4-(4-{4-methyl-2′-[(2-pyrrolidin-1-ylethyl)oxy]biphenyl-3-yl}piperazin-1-yl)-1H-pyrazolo[3,4-d]pyrimidine [Entry 269]”, the IC50 is below 100 nM in assay [1] (Table 1, class symbols per key) and below 100 nM in assay [2] (Table 1, class symbols per key). Consider “3-bromo-4-(4-{4-methyl-3′-[(2-pyrrolidin-1-yl-ethyl)oxy]biphenyl-3-yl}piperazin-1-yl)-1H-pyrazolo[3,4-d]pyrimidine [Entry 290]”, for which the IC50 in assay [1] and in assay [2] was below 100 nM in each case. For “3-bromo-4-{4-[5-{[2,3-difluoro-2-(fluorometh-yl)propyl]oxy}-2-methyl-3-(3-pyrrolidin-1-ylpropyl)phenyl]piperazin-1-yl}-1H-pyrazolo[3,4-d]pyrimidine [Entry 239]”, the half-maximal inhibitory concentration (IC50) in assay [1] (Table 1, class symbols per key) was below 100 nM; in assay [2] (Table 1, class symbols per key), below 100 nM.

“4-[4-(5-chloro-2-methylphenyl)piperazin-1-yl]-1H-pyrazolo[3,4-d]pyrimidin-6-amine [Entry 156]”: the half-inhibitory concentration (IC50) in assay [1] (Table 1, class symbols per key) was at least 10000 nM; in assay [2] (Table 1, class symbols per key) it was 1000 to 10000 nM. Regarding “4-[4-(5-chloro-2-methylphenyl)piperazin-1-yl]-3-(2-methylpropyl)-1H-pyrazolo[3,4-d]pyrimidine [Entry 355]”, the IC50 is 1000 to 10000 nM in assay [1] and below 100 nM in assay [2]. For “4-[4-(5-chloro-2-methylphenyl)piperazin-1-yl]-3-(3-pyrrolidin-1-ylpropyl)-1H-pyrazolo[3,4-d]pyrimidine [Entry 400]”, in that order: 1000 to 10000 nM and 1000 to 10000 nM. For the compound “6-(4-phenylpiperazin-1-yl)-9H-purine [Example 1]”, the IC50 in assay [1] (Table 1, class symbols per key) lay in the range of 1000 to 10000 nM; in assay [2] (Table 1, class symbols per key), 1000 to 10000 nM.

Turning to `CCc1n[nH]c2ncnc(N3CCN(c4cc(Cl)cc(OCCN5CCCCC5)c4C)CC3)c12` [Entry 17, 4-(4-{5-chloro-2-methyl-3-[(2-piperidin-1-ylethyl)oxy]phenyl}piperazin-1-yl)-3-ethyl-1H-pyrazolo[3,4-d]pyrimidine], the IC50 in assay [1] (Table 1, class symbols per key) is 1000 to 10000 nM; in assay [2] (Table 1, class symbols per key), below 100 nM. The corresponding values for `Cc1c(CCCN2CCOCC2)cc(Cl)cc1N1CCN(c2ncnc3[nH]nc(Br)c23)CC1` [Entry 18, 3-bromo-4-{4-[5-chloro-2-methyl-3-(3-morpholin-4-ylpropyl)phenyl]piperazin-1-yl}-1H-pyrazolo[3,4-d]pyrimidine] are 100 to 1000 nM and below 100 nM.

Regarding `Cc1c(CCCN2CCN(C)CC2)cc(Cl)cc1N1CCN(c2ncnc3[nH]nc(Br)c23)CC1` [Entry 19, 3-bromo-4-(4-{5-chloro-2-methyl-3-[3-(4-methylpiperazin-1-yl)propyl]phenyl}piperazin-1-yl)-1H-pyrazolo[3,4-d]pyrimidine], the IC50 is below 100 nM in assay [1] (Table 1, class symbols per key) and below 100 nM in assay [2] (Table 1, class symbols per key). For `Cc1c(OCCN2CCCCC2)cc(Cl)cc1N1CCN(c2ncnc3[nH]nc(Br)c23)CC1` [Entry 20, 3-bromo-4-(4-{5-chloro-2-methyl-3-[(2-piperidin-1-ylethyl)oxy]phenyl}piperazin-1-yl)-1H-pyrazolo[3,4-d]pyrimidine], the 50% inhibitory concentration (IC50) in assay [1] (Table 1, class symbols per key) is 100 to 1000 nM; in assay [2] (Table 1, class symbols per key), below 100 nM.

As to `CCc1n[nH]c2ncnc(N3CCN(c4cc(Cl)cc(OCCN5CCN(CC)CC5)c4C)CC3)c12` [Entry 25, 4-[4-(5-chloro-3-{[2-(4-ethylpiperazin-1-yl)ethyl]oxy}-2-methylphenyl)piperazin-1-yl]-3-ethyl-1H-pyrazolo[3,4-d]pyrimidine], the IC50 in assay [1] (Table 1, class symbols per key) is 1000 to 10000 nM; in assay [2] (Table 1, class symbols per key), below 100 nM.

Take `CCc1n[nH]c2ncnc(N3CCN(c4cc(Cl)cc(OCCCN5CCOCC5)c4C)CC3)c12` [Entry 26, 4-(4-{5-chloro-2-methyl-3-[(3-morpholin-4-ylpropyl)oxy]phenyl}piperazin-1-yl)-3-ethyl-1H-pyrazolo[3,4-d]pyrimidine]: the IC50 in assay [1] (Table 1, class symbols per key) was 1000 to 10000 nM; in assay [2] (Table 1, class symbols per key) it was below 100 nM. As for `Cc1c(CCCN2CCCCC2)cc(Cl)cc1N1CCN(c2ncnc3[nH]nc(Br)c23)CC1` [Entry 27, 3-bromo-4-{4-[5-chloro-2-methyl-3-(3-piperidin-1-ylpropyl)phenyl]piperazin-1-yl}-1H-pyrazolo[3,4-d]pyrimidine], the IC50 is below 100 nM in assay [1] (Table 1, class symbols per key) and below 100 nM in assay [2] (Table 1, class symbols per key). Take `CCN(CC)CCNc1cc(Cl)cc(N2CCN(c3ncnc4[nH]nc(Br)c34)CC2)c1C` [Entry 28, N′-{3-[4-(3-bromo-1H-pyrazolo[3,4-d]pyrimidin-4-yl)piperazin-1-yl]-5-chloro-2-methylphenyl}-N,N-diethylethane-1,2-diamine]: the IC50 in assay [1] (Table 1, class symbols per key) was below 100 nM; in assay [2] (Table 1, class symbols per key) it was below 100 nM.

As for `Cc1c(NCCN2CCCC2)cc(Cl)cc1N1CCN(c2ncnc3[nH]nc(Br)c23)CC1` [Entry 29, 3-[4-(3-bromo-1H-pyrazolo[3,4-d]pyrimidin-4-yl)piperazin-1-yl]-5-chloro-2-methyl-N-(2-pyrrolidin-1-ylethyl)aniline], the IC50 in assay [1] (Table 1, class symbols per key) is below 100 nM; in assay [2] (Table 1, class symbols per key) it was below 100 nM. On to `CCc1n[nH]c2ncnc(N3CCN(c4cc(Cl)cc(OCCN5CCN(C)CC5)c4C)CC3)c12` [Entry 30, 4-[4-(5-chloro-2-methyl-3-{[2-(4-methylpiperazin-1-yl)ethyl]oxy}phenyl)piperazin-1-yl]-3-ethyl-1H-pyrazolo[3,4-d]pyrimidine], for which the IC50 is 100 to 1000 nM in assay [1] (Table 1, class symbols per key) and below 100 nM in assay [2] (Table 1, class symbols per key). With `Cc1ccccc1N1CCN(c2ncnc3[nH]nc(C)c23)CC1` [Entry 319, 3-methyl-4-[4-(2-methylphenyl)piperazin-1-yl]-1H-pyrazolo[3,4-d]pyrimidine], in assay [2], the IC50 is below 100 nM. Same read-out and setting: the result for `CC(C)=CCc1n[nH]c2ncnc(N3CCN(c4cc(Cl)ccc4C)CC3)c12` [Entry 347, 4-[4-(5-chloro-2-methylphenyl)piperazin-1-yl]-3-(3-methylbut-2-en-1-yl)-1H-pyrazolo[3,4-d]pyrimidine] reads below 100 nM.

On to `Cc1ccc(Cl)cc1N1CCN(c2ncnc3[nH]nc(-c4ccc(OCC5CCNCC5)cc4)c23)CC1` [Entry 359, 4-[4-(5-chloro-2-methylphenyl)piperazin-1-yl]-3-{4-[(piperidin-4-ylmethyl)oxy]phenyl}-1H-pyrazolo[3,4-d]pyrimidine], for which the IC50 in assay [2] lay in the range of 100 to 1000 nM. On the same count and under the same terms, under `CCc1n[nH]c2ncnc(N3CCN(c4cccc(Cl)c4)CC3C(=O)NC)c12` (centres unmarked) [Entry 362, 4-(3-chlorophenyl)-1-(3-ethyl-1H-pyrazolo[3,4-d]pyrimidin-4-yl)-N-methylpiperazine-2-carboxamide] stands 1000 to 10000 nM.
